Converted amounts (≈) assume the structure as drawn.
Test: Tazarotene solubility in water, glycerin, and 70% glycerin solution
Assay type: physicochemical

Work on `CCOC(=O)c1ccc(C#Cc2ccc3c(c2)C(C)(C)CCS3)nc1` [Tazarotene] yielded a solubility (70% glycerin solution, aqueous with cosolvent or surfactant or cyclodextrin, 70% Glycerin, 5 °C) of 0.27 µg/mL (≈ 0.768 µM), a solubility (70% glycerin solution, aqueous with cosolvent or surfactant or cyclodextrin, 70% Glycerin, 25 °C) of 0.68 µg/mL (≈ 1.93 µM) and a solubility (70% glycerin solution, aqueous with cosolvent or surfactant or cyclodextrin, 70% Glycerin, 40 °C) of 4.43 µg/mL (≈ 12.6 µM). It also gave a solubility (glycerin, 5 °C, organic solvent or mixture) of 72.6 µg/mL (≈ 207 µM), a solubility (glycerin, 25 °C, organic solvent or mixture) of 34.7 µg/mL (≈ 98.7 µM) and a solubility (glycerin, 40 °C, organic solvent or mixture) of 527 µg/mL (≈ 1500 µM). For the same compound, the “solubility of tazarotene in glycerin” value (in words) was “low solubility”, the solubility (water, 5 °C) was 0.07 µg/mL (≈ 0.199 µM) and the solubility (water, 25 °C) was 0.04 µg/mL (≈ 0.114 µM). It also gave a solubility (water, 40 °C) of 1.7 µg/mL (≈ 4.84 µM).

— patent US20150209342A1, “TOPICAL RETINOID FORMULATIONS, PROCESSES FOR MAKING AND METHODS OF USE” (Allergan, Inc., priority 2014, published 2015)
